Patent US12715844B2, “Compound, preparation method therefor, composition, kit and use thereof” (SIGNDO BIOTECHNOLOGY (SUZHOU) CO., LTD, priority 2023, dated 2026)

Legend:
[1] = Acute toxicity experiment on rats; conditions: three dose groups of high, medium and low doses
[2] = test system: 22RV1 (PSMA+); assay: Drug efficacy validation by in vivo live imaging, three dose groups; design: species or system mice; conditions: for targeting properties: 22RV1 tumor mice, in vivo live imaging; for enrichment in the prostate cancer tumor site: high, medium and low doses (25, 50, 100 nmol/mouse), scans 1-48 h
Description: (§1) “V” denotes the volume-to-mass ratio. […] Mice refer to BALB/c nude mice, 6-8 weeks old, weighing 18-20 g; rats refer to SD rats: 8 weeks old, approximately 250 g.
2. Drug Efficacy Validation Experiment Using In Vivo Live Imaging
Prostate-specific membrane antigen (PSMA) is overexpressed on prostate cancer cells. The test compound is a PSMA-targeting molecule conjugated with a near-infrared region I dye. The test compound can bind to PSMA and “illuminate” cancer cells upon excitation by a near-infrared light source. In this experiment, the in vivo tissue distribution of the test compound in mice is detected using in vivo live imaging.
DGPR1008, 22RV1 (PSMA+), PC3 (PSMA−), 1640 culture medium, FBS, double antibodies, trypsin, Matrigel (BD), vernier caliper, centrifuge, IVIS live imager.
Matrigel was thawed on ice in advance, and the culture medium was pre-cooled on ice. After centrifugation, the cells were resuspended in the pre-cooled culture medium, followed by the addition of HC Matrigel gel in a volume equal to the culture medium. The centrifuge tube containing the cells was placed on ice and transferred to the animal facility. The cells were thoroughly dispersed before inoculation. The right dorsal shoulder area of the mice was disinfected with an alcohol cotton ball, and a single intravenous administration was performed with an inoculation volume of 200 μL per mouse. All operations were performed on ice. When the tumor volume reached 300-400 mm^3, the mice were grouped for administration. Nine mice with well-grown and regularly shaped tumors were selected into the group. The nine mice were randomly divided into three groups: G1 (25 nmol/mouse), G2 (50 nmol/mouse), and G3 (100 nmol/mouse), with three mice in each group. The scanning time: 1, 2, 4, 8, 24, and 48 h.

[3] = test system: 22RV1 (PSMA+); assay: 2-hour ex vivo tissue distribution: fluorescence of tumor and in situ normal prostate; design: species or system mice; conditions: relative to OTL78
Description: (§2) The Prostate-specific membrane antigen (PSMA) is overexpressed on prostate cancer cells. The test compound is a PSMA-targeting molecule conjugated with a near-infrared region I dye. The test compound can bind to PSMA and “illuminate” cancer cells upon excitation by a near-infrared light source. In this experiment, the in vivo and ex vivo tissue distribution of the test compound in mice is detected using in vivo live imaging.
(§3) Matrigel was thawed on ice in advance, and the culture medium was pre-cooled on ice. After centrifugation, the cells were resuspended in the pre-cooled culture medium, followed by the addition of HC Matrigel gel in a volume equal to the culture medium. The centrifuge tube containing the cells was placed on ice and transferred to the animal facility. The cells were thoroughly dispersed before inoculation. The back of the neck was disinfected with an alcohol cotton ball, and a single intravenous administration was performed with an inoculation volume of 200 μL per mouse. All operations were performed on ice. When the tumor volume reached 300-400 mm^3, the mice were grouped for administration. Six mice with well-grown and regularly shaped tumors were selected into the group. The six mice were randomly divided into two groups: G1 (OTL78 10 nmol/mouse) and G2 (DGPR1008 10 nmol/mouse) with three mice in each group. The scanning time: 1, 2, 4, 8, 24, and 72 h.
(2) Results of 2-Hour Ex Vivo Tissue Distribution: Fluorescence Ratio of Tumor to In Situ Normal Prostate: […]

[4] = molecular target: T1, PSMA receptor (Homo sapiens, UniProt Q04609); assay: Receptor binding detected by flow cytometry in vitro (competitive binding with DUPA-FITC); conditions: 22RV1 (PSMA+) cells, competition with 100 nmol/L DUPA-FITC
T1 construct: endogenous in cells; host or cells: 22RV1 (PSMA+); PC3 (PSMA−) as negative control
T1 sequence (Q04609 whole entry): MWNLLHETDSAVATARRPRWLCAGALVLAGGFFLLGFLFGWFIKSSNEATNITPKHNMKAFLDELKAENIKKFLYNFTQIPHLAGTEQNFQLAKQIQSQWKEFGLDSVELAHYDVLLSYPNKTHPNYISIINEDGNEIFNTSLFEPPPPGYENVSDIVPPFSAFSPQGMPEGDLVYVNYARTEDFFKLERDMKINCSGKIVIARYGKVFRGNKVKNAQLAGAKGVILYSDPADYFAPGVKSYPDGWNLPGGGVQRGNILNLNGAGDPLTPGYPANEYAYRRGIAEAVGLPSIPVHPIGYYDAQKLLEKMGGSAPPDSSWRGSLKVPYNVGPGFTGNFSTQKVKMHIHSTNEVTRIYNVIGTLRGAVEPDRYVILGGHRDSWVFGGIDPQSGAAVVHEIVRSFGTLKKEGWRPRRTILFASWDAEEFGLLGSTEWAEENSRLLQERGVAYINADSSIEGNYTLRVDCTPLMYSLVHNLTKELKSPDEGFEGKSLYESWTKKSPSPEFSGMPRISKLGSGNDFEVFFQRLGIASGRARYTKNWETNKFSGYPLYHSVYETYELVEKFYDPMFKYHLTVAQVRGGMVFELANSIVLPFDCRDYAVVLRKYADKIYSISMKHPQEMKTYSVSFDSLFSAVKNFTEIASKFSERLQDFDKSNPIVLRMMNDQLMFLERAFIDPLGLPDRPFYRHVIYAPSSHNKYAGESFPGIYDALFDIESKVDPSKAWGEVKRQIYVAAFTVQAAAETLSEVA
Description: 1. Receptor Binding was Detected by Flow Cytometry In Vitro:
Prostate-specific membrane antigen (PSMA) is overexpressed on prostate cancer cells. Both DUPA-FITC and DGPR1008 are capable of targeting the PSMA receptor in prostate cancer cells, with the difference being that DUPA-FITC is connected to a visible light dye (Ex=495 nm, Em=520 nm), whereas DGPR1008 is connected to a near-infrared dye (Ex=776 nm, Em=793 nm). Since the majority types of lasers equipped in flow cytometers operate within the visible light spectrum, the binding affinity of DGPR1008 to the receptor can not be directly measured. Therefore, the competitive binding of DGPR1008 with DUPA-FITC to PSMA is employed to indirectly assess the binding affinity of the test compound to the receptor.
DGPR1008, DUPA-FITC, 22RV1 (PSMA+), PC3 (PSMA−), 1640 culture medium, FBS, double antibiotics, trypsin, centrifuge, 4° C. constant temperature incubator, flow cytometer.
Drug preparation: 100 nmol/L DUPA-FITC was prepared using culture medium. The test compound was diluted to nine concentrations (0.00098 μM, 0.002 μM, 0.008 μM, 0.01 μM, 0.03 μM, 0.05 μM, 0.09 μM, 0.1 μM, and 0.125 μM) using culture medium containing 100 nmol/L DUPA-FITC, with three replicate wells for each concentration.
Cell culture: The cells were seeded in T75 culture flasks. After 48 h, cells in the logarithmic growth phase were taken, digested with trypsin for 1-2 min, and the digestion was then terminated by adding fresh culture medium. After cell counting, the cells were transferred into a 96-well plate (1×10^5 cells/well), totaling 27 wells. The culture medium was discarded by centrifugation (800 rpm, 5 min), and the cells were washed twice with PBS and then centrifuged to collect the cell pellet. The prepared culture media with 9 concentrations were added to the cell-containing wells, with three replicates for each concentration. The cells were incubated at 4° C. in the dark for 30 min, and then the culture medium in the wells was discarded. Cells were washed by adding 300 μL of fresh culture medium (twice) and saline (once) to each well, followed by resuspension in 300 μL of saline for flow cytometry detection.

[5] = Pharmacokinetic parameters in rat plasma; assay type: in vivo; conditions: compared with OTL78
[6] = test system: 22RV1 (PSMA+); assay: In vivo live imaging comparison with the existing product OTL78; design: species or system mice; conditions: for TBR (tumor-to-background ratio), in words: from about 2 h to 72 h; for fluorescence value at the tumor site compared with OTL78: mice, each time point; for TBR compared with OTL78: relative to OTL78
Description: as §1
3. Comparison with the Existing Product OTL78
as §2
DGPR1008, 22RV1 (PSMA+), BALB/c nude mouse, 1640 culture medium, FBS, double antibodies, trypsin, Matrigel (BD), vernier caliper, centrifuge, IVIS live imager.
as §3
(1) Results and Data of In Vivo Live Imaging of Drug Efficacy (Mice were Used as Experimental Subjects in this Part)

Row | SMILES | toxic reactions in acute toxicity experiment [1] | targeting properties [2] | enrichment in the prostate cancer tumor site [2] | discrimination capability (tumor vs normal prostate) compared with OTL78 [3] | binding affinity to PSMA receptor [4] | clearance in rats in vivo, in words [5] | TBR (tumor-to-background ratio), in words [6] | fluorescence value at the tumor site compared with OTL78 [6] | TBR compared with OTL78 [6]
1 | CC1(C)C(=CC=C2CCCC(C=CC3=[N+](CCCCS(=O)(=O)[O-])c4ccc(S(=O)(=O)[O-])cc4C3(C)C)=C2Oc2ccc(CC(NC(=O)CCOCCCOCCCNC(=O)CCC(NC(=O)NC(CCC(=O)[O-])C(=O)[O-])C(=O)[O-])C(=O)[O-])cc2)N(CCCCS(=O)(=O)[O-])c2ccc(S(=O)(=O)[O-])cc21.[Na+].[Na+].[Na+].[Na+].[Na+].[Na+].[Na+] (stereo not drawn) [Example 31] | no toxic reactions were observed | good targeting properties | enriched in the prostate cancer tumor site | approximately 5 fold | good affinity | cleared more rapidly | good TBR | greater fluorescence values at the tumor site than OTL78 | higher TBR
2 | CC1(C)C(=CC=C2CCCC(C=CC3=[N+](CCCCS(=O)(=O)[O-])c4ccc(S(=O)(=O)[O-])cc4C3(C)C)=C2Oc2ccc(CC(NC(=O)CCOCCOCCNC(=O)CCC(NC(=O)NC(CCC(=O)[O-])C(=O)[O-])C(=O)[O-])C(=O)[O-])cc2)N(CCCCS(=O)(=O)[O-])c2ccc(S(=O)(=O)[O-])cc21.[Li+].[Li+].[Li+].[Li+].[Li+].[Li+].[Li+] (stereo not drawn) [Example 13] | no toxic reactions were observed | good targeting properties | enriched in the prostate cancer tumor site | approximately 5 fold | good affinity | cleared more rapidly | good TBR | greater fluorescence values at the tumor site than OTL78 | higher TBR
